Assay results from patent US9493455B2, “Azaindole derivatives as inhibitors of protein kinases” (ORIBASE PHARMA, priority 2012, dated 2016).

What was measured:
PC-3 = assay: In vitro cell proliferation assay (MTT); assay type: cell-based; details: Homo sapiens, PC-3, 72 h
In short: (§1)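 Growth is assessed with the tetrazolium dye MTT following a 72 hr incubation with compound spanning 10 nM up to 3 μM, each dose tested twice on 5×10^3 plated cells per well.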

HuH6 Clone 5 = assay: In vitro cell proliferation assay (MTT); assay type: cell-based; details: HUH-6-clone5, 72 h
In short: as §1

BxPC-3 = assay: In vitro cell proliferation assay (MTT); assay type: cell-based; details: Homo sapiens, BXPC-3, 72 h
In short: as §1

H1975 = assay: In vitro cell proliferation assay (MTT); assay type: cell-based; details: Homo sapiens, NCI-H1975, 72 h
In short: as §1

HepG2 = assay: In vitro cell proliferation assay (MTT); assay type: cell-based; details: Homo sapiens, HepG2, 72 h
In short: as §1

HUVEC = assay: In vitro cell proliferation assay (MTT); assay type: cell-based; details: Homo sapiens, 72 h
Experimental: Cancer cell lines (5×10^3 cells per well) or HUVEC (1×10^4 cells per well) or HRMEC (1×10^4 cells per well) were distributed in 96-well plates and incubating in duplicate with escalating concentrations (10 nM to 3 μM) of compounds for 72 hr. Cell proliferation was measured using MTT (3 [4,5-dimethylthiazol-2-yl]-2,5-diphenyltetrazolium bromide).

MDA-MB-231 = assay: In vitro cell proliferation assay (MTT); assay type: cell-based; details: Homo sapiens, MDA-MB-231, 72 h
In short: as §1

HuH7 = assay: In vitro cell proliferation assay (MTT); assay type: cell-based; details: Homo sapiens, Huh-7, 72 h
In short: as §1

HT29 = assay: In vitro cell proliferation assay (MTT); assay type: cell-based; details: Homo sapiens, HT-29, 72 h
In short: as §1

A549 = assay: In vitro cell proliferation assay (MTT); assay type: cell-based; details: Homo sapiens, A549, 72 h
In short: as §1

HuCCT1 = assay: In vitro cell proliferation assay (MTT); assay type: cell-based; details: Homo sapiens, HuCCT-1, 72 h
In short: as §1

EGFR (ErbB1) T790M L858R = biological target: T1, EGFR (ErbB1) T790M L858R (Homo sapiens, UniProt P00533, L858R/T790M); assay: In vitro kinase assay (Z′-LYTE); assay type: biochemical; details: read-out: % of inhibition of the kinase compared to the control
T1 construct: purchased Invitrogen
T1 sequence (P00533 25-1210 T790M/L858R): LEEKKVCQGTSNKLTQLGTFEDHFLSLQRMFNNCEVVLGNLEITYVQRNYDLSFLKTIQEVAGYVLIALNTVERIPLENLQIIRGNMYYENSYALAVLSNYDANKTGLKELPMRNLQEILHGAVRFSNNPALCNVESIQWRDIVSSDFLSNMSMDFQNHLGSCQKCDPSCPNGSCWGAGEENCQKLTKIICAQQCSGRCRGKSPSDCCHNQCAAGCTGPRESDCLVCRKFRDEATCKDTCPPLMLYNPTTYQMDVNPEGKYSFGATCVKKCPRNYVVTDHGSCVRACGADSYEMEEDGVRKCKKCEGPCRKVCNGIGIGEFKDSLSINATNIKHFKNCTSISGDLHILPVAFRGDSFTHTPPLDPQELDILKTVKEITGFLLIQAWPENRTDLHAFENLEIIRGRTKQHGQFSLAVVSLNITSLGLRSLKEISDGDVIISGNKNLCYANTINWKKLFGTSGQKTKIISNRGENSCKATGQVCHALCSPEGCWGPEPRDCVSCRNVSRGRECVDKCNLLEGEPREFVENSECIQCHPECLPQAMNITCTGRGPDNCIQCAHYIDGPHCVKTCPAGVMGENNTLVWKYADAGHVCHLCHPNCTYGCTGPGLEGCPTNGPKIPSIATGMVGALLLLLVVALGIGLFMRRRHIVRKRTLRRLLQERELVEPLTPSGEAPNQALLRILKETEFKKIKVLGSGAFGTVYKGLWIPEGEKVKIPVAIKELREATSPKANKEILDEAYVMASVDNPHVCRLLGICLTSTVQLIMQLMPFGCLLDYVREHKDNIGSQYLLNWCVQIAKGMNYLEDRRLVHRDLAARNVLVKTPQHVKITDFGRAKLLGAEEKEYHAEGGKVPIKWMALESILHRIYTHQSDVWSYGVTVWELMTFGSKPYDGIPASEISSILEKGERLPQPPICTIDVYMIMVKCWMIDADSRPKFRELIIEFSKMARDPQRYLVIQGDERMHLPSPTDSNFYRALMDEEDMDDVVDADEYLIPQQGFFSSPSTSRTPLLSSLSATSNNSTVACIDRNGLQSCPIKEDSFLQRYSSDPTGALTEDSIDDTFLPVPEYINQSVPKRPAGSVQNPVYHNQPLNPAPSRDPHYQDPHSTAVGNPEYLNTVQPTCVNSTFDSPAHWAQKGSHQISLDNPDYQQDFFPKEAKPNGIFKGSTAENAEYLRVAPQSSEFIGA
In short: (§2)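 Z′-LYTE FRET assay: kinase phosphorylation of a dual-fluorophore peptide protects it from protease cleavage, and the donor/acceptor emission ratio after 400 nm excitation tracks progress. Compounds were tested at 100 nM, or at 10 μM against ABL T315I, in 1% DMSO final, with ATP at apparent Km.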

VEGFR1 = biological target: T2, VEGFR1 (Homo sapiens, UniProt P17948); assay: In vitro kinase assay (Z′-LYTE); assay type: biochemical; details: read-out: % of inhibition of the kinase compared to the control
T2 construct: purchased Invitrogen
T2 sequence (P17948 27-1338): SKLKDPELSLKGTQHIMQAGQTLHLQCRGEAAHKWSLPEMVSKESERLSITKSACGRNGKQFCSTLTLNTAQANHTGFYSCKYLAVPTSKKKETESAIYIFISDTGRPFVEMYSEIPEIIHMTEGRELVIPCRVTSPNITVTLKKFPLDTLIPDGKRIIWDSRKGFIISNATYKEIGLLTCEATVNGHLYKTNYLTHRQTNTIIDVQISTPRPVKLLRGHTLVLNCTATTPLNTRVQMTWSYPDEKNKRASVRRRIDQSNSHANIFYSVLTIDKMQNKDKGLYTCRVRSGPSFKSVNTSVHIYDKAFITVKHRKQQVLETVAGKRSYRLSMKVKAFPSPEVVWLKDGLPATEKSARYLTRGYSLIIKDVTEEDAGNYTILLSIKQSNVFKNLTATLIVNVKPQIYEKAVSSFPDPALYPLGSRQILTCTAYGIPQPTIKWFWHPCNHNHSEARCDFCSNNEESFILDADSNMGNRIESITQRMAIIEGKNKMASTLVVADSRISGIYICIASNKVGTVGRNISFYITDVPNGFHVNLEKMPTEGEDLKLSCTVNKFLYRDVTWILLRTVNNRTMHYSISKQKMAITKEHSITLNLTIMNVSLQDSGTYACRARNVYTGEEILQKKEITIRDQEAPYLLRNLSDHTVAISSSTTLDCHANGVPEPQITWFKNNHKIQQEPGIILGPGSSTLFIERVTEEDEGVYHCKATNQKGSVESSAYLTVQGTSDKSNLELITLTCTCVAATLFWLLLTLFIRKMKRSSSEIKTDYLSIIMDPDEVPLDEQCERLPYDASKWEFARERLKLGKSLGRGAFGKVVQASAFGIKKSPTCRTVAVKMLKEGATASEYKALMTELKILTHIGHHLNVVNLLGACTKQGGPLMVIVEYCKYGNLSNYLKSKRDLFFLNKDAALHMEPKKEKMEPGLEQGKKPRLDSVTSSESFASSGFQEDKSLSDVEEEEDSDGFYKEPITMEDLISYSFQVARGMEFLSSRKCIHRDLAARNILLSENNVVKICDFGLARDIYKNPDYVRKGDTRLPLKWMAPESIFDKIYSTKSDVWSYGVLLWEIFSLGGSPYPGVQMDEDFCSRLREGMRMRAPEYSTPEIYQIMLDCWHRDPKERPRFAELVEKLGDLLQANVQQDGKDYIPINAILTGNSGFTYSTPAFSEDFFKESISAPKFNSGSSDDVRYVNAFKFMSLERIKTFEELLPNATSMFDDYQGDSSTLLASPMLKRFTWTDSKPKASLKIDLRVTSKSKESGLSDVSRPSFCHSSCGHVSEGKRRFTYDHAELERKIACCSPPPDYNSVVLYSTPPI
In short: as §2

ABL = biological target: T3, ABL (Homo sapiens, UniProt P00519); assay: In vitro kinase assay (Z′-LYTE); assay type: biochemical; details: read-out: % of inhibition of the kinase compared to the control
T3 construct: purchased Invitrogen

SRC = biological target: T4, SRC (Homo sapiens, UniProt P12931); assay: In vitro kinase assay (Z′-LYTE); assay type: biochemical; details: read-out: % of inhibition of the kinase compared to the control
T4 construct: purchased Invitrogen
T4 sequence (P12931 whole entry): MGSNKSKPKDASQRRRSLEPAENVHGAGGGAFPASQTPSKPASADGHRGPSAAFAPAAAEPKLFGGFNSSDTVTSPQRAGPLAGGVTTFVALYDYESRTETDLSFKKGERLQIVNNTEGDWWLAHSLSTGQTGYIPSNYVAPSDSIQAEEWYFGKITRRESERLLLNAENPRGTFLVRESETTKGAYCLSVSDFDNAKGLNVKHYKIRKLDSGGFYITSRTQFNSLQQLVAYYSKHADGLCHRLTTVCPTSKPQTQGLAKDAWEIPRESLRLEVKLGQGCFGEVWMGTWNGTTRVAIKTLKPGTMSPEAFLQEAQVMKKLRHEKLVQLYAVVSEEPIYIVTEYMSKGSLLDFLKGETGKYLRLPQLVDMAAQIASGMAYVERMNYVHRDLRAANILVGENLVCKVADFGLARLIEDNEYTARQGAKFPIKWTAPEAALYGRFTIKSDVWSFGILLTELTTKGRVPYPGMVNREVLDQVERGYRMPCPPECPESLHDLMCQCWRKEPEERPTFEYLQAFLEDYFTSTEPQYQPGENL
In short: as §2

FGFR2 = biological target: T5, FGFR2 (Homo sapiens, UniProt P21802); assay: In vitro kinase assay (Z′-LYTE); assay type: biochemical; details: read-out: % of inhibition of the kinase compared to the control
T5 construct: purchased Invitrogen
T5 sequence (P21802 22-821): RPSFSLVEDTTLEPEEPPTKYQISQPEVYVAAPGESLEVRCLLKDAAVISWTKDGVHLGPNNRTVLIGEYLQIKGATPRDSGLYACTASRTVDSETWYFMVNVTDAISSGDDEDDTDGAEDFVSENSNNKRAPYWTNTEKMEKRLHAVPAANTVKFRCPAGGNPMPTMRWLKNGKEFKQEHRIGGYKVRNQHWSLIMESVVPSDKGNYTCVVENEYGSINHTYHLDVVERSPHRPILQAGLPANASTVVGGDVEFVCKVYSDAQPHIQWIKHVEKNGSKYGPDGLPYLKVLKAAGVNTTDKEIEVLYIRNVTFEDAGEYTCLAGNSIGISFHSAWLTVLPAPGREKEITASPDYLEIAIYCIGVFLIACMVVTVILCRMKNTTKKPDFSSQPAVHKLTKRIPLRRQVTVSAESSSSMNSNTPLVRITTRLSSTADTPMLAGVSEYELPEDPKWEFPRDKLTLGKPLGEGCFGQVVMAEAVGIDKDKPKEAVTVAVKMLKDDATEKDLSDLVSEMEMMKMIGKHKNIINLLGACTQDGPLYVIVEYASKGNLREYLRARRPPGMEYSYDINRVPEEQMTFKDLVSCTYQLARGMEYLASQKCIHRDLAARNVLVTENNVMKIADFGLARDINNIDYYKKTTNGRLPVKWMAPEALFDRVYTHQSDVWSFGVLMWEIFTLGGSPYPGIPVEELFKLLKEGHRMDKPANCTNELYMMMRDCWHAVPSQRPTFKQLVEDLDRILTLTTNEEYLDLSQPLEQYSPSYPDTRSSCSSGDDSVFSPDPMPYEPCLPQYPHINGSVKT
In short: as §2

BRAF = biological target: T6, BRAF (Homo sapiens, UniProt P15056); assay: In vitro kinase assay (Z′-LYTE); assay type: biochemical; details: compound 100 nM; ATP 100 μM; read-out: % of inhibition of the kinase compared to the control
T6 construct: purchased Invitrogen
In short: as §2

ABL T315I = biological target: T7, ABL T315I (Homo sapiens, UniProt P00519, T315I); assay: In vitro kinase assay (Z′-LYTE); assay type: biochemical; details: read-out: % of inhibition of the kinase compared to the control
T7 construct: purchased Invitrogen
In short: as §2

PDGFRA (PDGFR alpha) = biological target: T8, PDGFRA (PDGFR alpha) (Homo sapiens, UniProt P16234); assay: In vitro kinase assay (Z′-LYTE); assay type: biochemical; details: read-out: % of inhibition of the kinase compared to the control
T8 construct: purchased Invitrogen
T8 sequence (P16234 24-1089): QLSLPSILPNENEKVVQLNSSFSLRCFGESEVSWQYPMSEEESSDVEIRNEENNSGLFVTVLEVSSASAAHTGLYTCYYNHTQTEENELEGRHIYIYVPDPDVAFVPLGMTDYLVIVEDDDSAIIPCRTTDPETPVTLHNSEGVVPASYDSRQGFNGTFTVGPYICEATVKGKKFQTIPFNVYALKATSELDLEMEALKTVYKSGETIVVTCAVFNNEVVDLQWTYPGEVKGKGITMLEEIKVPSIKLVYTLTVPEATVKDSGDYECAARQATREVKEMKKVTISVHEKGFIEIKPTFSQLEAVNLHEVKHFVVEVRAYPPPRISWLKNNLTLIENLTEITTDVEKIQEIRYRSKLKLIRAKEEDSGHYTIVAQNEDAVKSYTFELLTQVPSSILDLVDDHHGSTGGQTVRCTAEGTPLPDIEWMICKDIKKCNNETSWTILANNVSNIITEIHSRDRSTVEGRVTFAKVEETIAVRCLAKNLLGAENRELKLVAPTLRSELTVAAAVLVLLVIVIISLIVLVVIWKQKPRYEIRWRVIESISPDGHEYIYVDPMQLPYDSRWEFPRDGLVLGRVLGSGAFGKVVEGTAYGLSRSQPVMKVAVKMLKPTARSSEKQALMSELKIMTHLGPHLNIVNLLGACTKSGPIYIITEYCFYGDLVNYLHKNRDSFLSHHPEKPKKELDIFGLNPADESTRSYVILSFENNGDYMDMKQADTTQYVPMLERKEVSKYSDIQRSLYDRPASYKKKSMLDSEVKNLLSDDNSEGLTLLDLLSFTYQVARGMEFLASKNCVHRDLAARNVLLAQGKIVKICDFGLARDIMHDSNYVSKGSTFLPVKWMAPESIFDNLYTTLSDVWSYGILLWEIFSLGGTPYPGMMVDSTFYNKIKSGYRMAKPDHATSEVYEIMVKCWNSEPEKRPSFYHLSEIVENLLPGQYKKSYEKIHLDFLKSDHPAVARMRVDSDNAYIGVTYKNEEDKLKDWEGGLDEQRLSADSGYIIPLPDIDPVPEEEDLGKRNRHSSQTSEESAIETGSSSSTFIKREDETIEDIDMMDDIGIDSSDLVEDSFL
In short: as §2

KDR (VEGFR2) = biological target: T9, KDR (VEGFR2) (Homo sapiens, UniProt P35968); assay: In vitro kinase assay (Z′-LYTE); assay type: biochemical; details: read-out: % of inhibition of the kinase compared to the control
T9 construct: purchased Invitrogen
In short: as §2

EGFR (ErbB1) = biological target: T10, EGFR (ErbB1) (Homo sapiens, UniProt P00533); assay: In vitro kinase assay (Z′-LYTE); assay type: biochemical; details: read-out: % of inhibition of the kinase compared to the control
T10 construct: purchased Invitrogen
In short: as §2

FGFR1 = biological target: T11, FGFR1 (Homo sapiens, UniProt P11362); assay: In vitro kinase assay (Z′-LYTE); assay type: biochemical; details: read-out: % of inhibition of the kinase compared to the control
T11 construct: purchased Invitrogen
In short: as §2

PDGFRB = biological target: T12, PDGFRB (Homo sapiens, UniProt P09619); assay: In vitro kinase assay (Z′-LYTE); assay type: biochemical; details: read-out: % of inhibition of the kinase compared to the control
T12 construct: purchased Invitrogen
In short: as §2

Caki-2 = assay: In vitro cell proliferation assay (MTT); assay type: cell-based; details: Homo sapiens, CAKI-2, 72 h
In short: as §1

HRMEC = assay: In vitro cell proliferation assay (MTT); assay type: cell-based; details: 72 h
In short: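 Cells were seeded at 5×10^3 per well and exposed in duplicate to escalating compound concentrations from 10 nM to 3 μM for 72 hr. Proliferation was then measured by MTT reduction.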

HeLa = assay: In vitro cell proliferation assay (MTT); assay type: cell-based; details: Homo sapiens, 72 h
In short: as §1

| EC50 (HuH6 Clone 5) [µM] | EC50 (BxPC-3) [µM] | EC50 (H1975) [µM] | EC50 (HepG2) [µM] | EC50 (HuH7) [µM] | EC50 (HT29) [µM] | EC50 (A549) [µM] | inhibition at 0.1 µM (EGFR (ErbB1) T790M L858R) [%] | inhibition at 0.1 µM (VEGFR1) [%] | inhibition at 10 µM (ABL) [%] | inhibition at 0.1 µM (SRC) [%] | inhibition at 0.1 µM (FGFR2) [%] | inhibition at 0.1 µM (BRAF) [%] | inhibition at 10 µM (ABL T315I) [%] | inhibition at 0.1 µM (PDGFRA (PDGFR alpha)) [%] | inhibition at 0.1 µM (KDR (VEGFR2)) [%] | inhibition at 0.1 µM (EGFR (ErbB1)) [%] | inhibition at 0.1 µM (FGFR1) [%] | SMILES | EC50 (HUVEC) [µM] | EC50 (HuCCT1) [µM] | other results |
| --- | --- | --- | --- | --- | --- | --- | --- | --- | --- | --- | --- | --- | --- | --- | --- | --- | --- | --- | --- | --- | --- |
| ≥ 1 | 0.1 to 1 | ≥ 1 | ≤ 0.1 | 0.1 to 1 | ≥ 1 | 0.1 to 1 | < 50 | < 50 | ≥ 50 | ≥ 50 | < 50 | ≥ 50 | < 50 | ≥ 50 | ≥ 50 | ≥ 50 | < 50 | COC(=O)c1cc2cc(NCc3cc(NC(=O)c4cncc(C(F)(F)F)c4)ccc3C)cnc2[nH]1 [OR0604] | 0.1 to 1 | ≥ 1 | EC50 (PC-3): ≥ 1 µM; EC50 (MDA-MB-231): ≤ 0.1 µM; inhibition at 0.1 µM (PDGFRB): ≥ 50% |
| – | ≥ 1 | – | – | – | – | – | – | – | – | – | – | – | – | – | – | – | – | CCN(CC)CCNC(=O)c1c(C)[nH]c(/C=C2\C(=O)Nc3ccc(F)cc32)c1C [Sunitinib, reference compound] | – | – | EC50 (Caki-2): ≥ 1 µM |
| ≥ 1 | – | – | ≥ 1 | ≥ 1 | – | – | – | – | – | – | – | – | – | – | – | – | – | CNC(=O)c1cc(Oc2ccc(NC(=O)Nc3ccc(Cl)c(C(F)(F)F)c3)cc2)ccn1 [Sorafenib, reference compound] | 0.1 to 1 | ≥ 1 | – |
| – | ≥ 1 | ≥ 1 | 0.1 to 1 | – | ≥ 1 | ≥ 1 | < 50 | < 50 | ≥ 50 | ≥ 50 | < 50 | ≥ 50 | < 50 | ≥ 50 | ≥ 50 | < 50 | < 50 | COC(=O)c1cc2cc(NCc3cc(NC(=O)c4ccc5[nH]ccc5c4)ccc3C)cnc2[nH]1 [OR0617] | 0.1 to 1 | ≥ 1 | EC50 (HRMEC): ≥ 1 µM; inhibition at 0.1 µM (PDGFRB): < 50% |
| – | ≥ 1 | ≥ 1 | ≥ 1 | – | ≥ 1 | ≥ 1 | < 50 | < 50 | ≥ 50 | < 50 | < 50 | ≥ 50 | < 50 | ≥ 50 | < 50 | < 50 | < 50 | COC(=O)c1cc2cc(NCc3cc(NC(=O)c4ccc5[nH]nnc5c4)ccc3C)cnc2[nH]1 [OR0616] | ≥ 1 | – | EC50 (HRMEC): ≥ 1 µM; inhibition at 0.1 µM (PDGFRB): ≥ 50% |
| ≥ 1 | – | ≥ 1 | 0.1 to 1 | 0.1 to 1 | 0.1 to 1 | 0.1 to 1 | < 50 | – | – | ≥ 50 | < 50 | ≥ 50 | – | ≥ 50 | < 50 | < 50 | – | COC(=O)c1cc2cc(NC(=O)c3cc(NC(=O)c4cncc(C(F)(F)F)c4)ccc3C)cnc2[nH]1 [OR0745] | 0.1 to 1 | ≥ 1 | EC50 (HeLa): ≥ 1 µM; EC50 (MDA-MB-231): 0.1 to 1 µM |
